Reference: patent publication US5348969A, “Diphenyloxazolyl-oxazoles as platelet aggregation inhibitors” (Bristol-Myers Squibb Company, priority 1992, dated 1994)
In brackets after ≈: the same amount, converted by molar mass.

Tested on: platelet aggregation (human PRP vs ADP)
Assay: not given
Settings: U.S. Pat. No. 4,460,598 / Drugs of the Future 11, 26 (1986); cited from earlier work
In the case of `O=C(O)CCCCCCCOc1nc(-c2ccccc2)c(-c2ccccc2)n1-c1ccccc1` [Octimibate], the “inhibition of platelet aggregation, in words” value is given as “broad spectrum inhibitor of platelet aggregation”.

Same assay, conditions: human PRP vs ADP; U.S. Pat. No. 4,460,598 / Drugs of the Future 11, 26 (1986); cited from earlier work
For `O=C(O)CCCCCCCOc1nc(-c2ccccc2)c(-c2ccccc2)n1-c1ccccc1` [Octimibate], the “IC50 (human PRP vs ADP)” value is given as 1 µg/mL (≈ 2.2 µM).

Tested on: ADP-induced aggregation of human blood platelets in platelet-rich-plasma
Assay: In vitro inhibition of ADP-induced human platelet aggregation (aggregometer method, PRP)
Assay type: cell-based
Settings: Homo sapiens, Platelet, read-out: IC50 (human PRP vs ADP), human PRP, incubated at about 37° C. for about 3 minutes prior to ADP
Description: The aggregometer method of Born, G. V. R., J. Physiol., (London), 162, 67-68, (1962) as modified by Mustard, J. F., et al., J. Lab. Clin. Med., 64, 548-599, (1964) was used to assess the in vitro activity of the various compounds as to the inhibition of adenosine diphosphate (ADP) and collagen-induced platelet aggregation. The human volunteer donor's arm is cleansed with 70% ethyl alcohol. A sterile 20 ml syringe and needle are used to withdraw 20 ml of blood. The blood is immediately added to a test tube containing 3.8% sodium citrate to prevent clotting (1 part citrate to 9 parts blood).
Platelet rich plasma (PRP) was separated by centrifugation for 10 minutes at 1000 rpm (140×g) from citrated (3.8%) human blood. All glassware used for preparation of PRP is silicon treated. ADP in final concentration of 0.5 mcg/mL or 0.05 mL of a collagen suspension prepared according to the method described by Evans, G., et al., J. Exp. Med., 128, 877-894, (1968) was used to induce aggregation. The various compounds tested were dissolved in dimethylsulfoxide (DMSO) so that 5 mcl added to the platelet rich plasma would yield the desired test concentration. Vehicle control trials were done and compared with aggregation induced in platelet rich plasma containing various concentrations of the test compounds. Dose response curves were obtained and Inhibitor Concentration (IC50) values calculated.
The target compounds were evaluated as inhibitors of ADP-induced aggregation of human blood platelet in platelet-rich-plasma (PRP) in vitro. The test compounds were incubated at about 37° C. in PRP for about 3 minutes prior to the addition of sufficient ADP to provide final ADP concentration of […].
Work on `COC(=O)COc1cccc([C@@H]2OC=N[C@H]2c2nc(-c3ccccc3)c(-c3ccccc3)o2)c1` (relative stereo) [Compound 31, Methyl[3-[4-(4,5-diphenyl-2-oxazolyl)-4,5-dihydro-5-oxazolyl]phenoxy]acetate] yielded an IC50 of 0.08 µg/mL (≈ 0.176 µM).
In the case of `COC(=O)COc1cccc([C@@H]2OC(C)=N[C@H]2c2nc(-c3ccccc3)c(-c3ccccc3)o2)c1` (relative stereo) [Compound 39, Methyl[3-[4-(4,5-diphenyl-2-oxazolyl)-4,5-dihydro-2-methyl-5-oxazolyl]phenoxy]acetate], the IC50 is reported as 0.65 µg/mL (≈ 1.39 µM).
With `COC(=O)COc1cccc([C@@H]2OC(c3ccccc3)=N[C@H]2c2nc(-c3ccccc3)c(-c3ccccc3)o2)c1` (relative stereo) [Compound 40, Methyl[3-[4-(4,5-diphenyl-2-oxazolyl)-4,5-dihydro-2-phenyl-5-oxazolyl]phenoxy]acetate] the IC50 was 10 µg/mL (≈ 18.8 µM).
Compound `COC(=O)COc1cccc([C@H]2OC(C)=N[C@H]2c2nc(-c3ccccc3)c(-c3ccccc3)o2)c1` (relative stereo) [Compound 41, Methyl[3-[4-(4,5-diphenyl-2-oxazolyl)-4,5-dihydro-2-methyl-5-oxazolyl]phenoxy]acetate] has an IC50 of 27 µg/mL (≈ 57.6 µM).
In the case of `COC(=O)COc1cccc([C@H]2OC(c3ccccc3)=N[C@H]2c2nc(-c3ccccc3)c(-c3ccccc3)o2)c1` (relative stereo) [Compound 42, Methyl[3-[4-(4,5-diphenyl-2-oxazolyl)-4,5-dihydro-2-phenyl-5-oxazolyl]phenoxy]acetate], the IC50 is reported as 32 µg/mL (≈ 60.3 µM).
In the case of `COC(=O)COc1cccc(-c2ncoc2-c2nc(-c3ccccc3)c(-c3ccccc3)o2)c1` [Compound 4], the IC50 is reported as 0.174 µg/mL (≈ 0.385 µM).
With `O=C(O)COc1cccc(-c2ncoc2-c2nc(-c3ccccc3)c(-c3ccccc3)o2)c1` [Compound 5] the IC50 was 0.07 µg/mL (≈ 0.16 µM).
Compound `COC(=O)COc1cccc(-c2ccccc2-c2nc(-c3ccccc3)c(-c3ccccc3)o2)c1` [Compound 6, Methyl[2'-(4,5-diphenyl-2-oxazolyl)-[1,1'-biphenyl]-3-yloxy]acetate] has an IC50 of 32 µg/mL (≈ 69.3 µM).
With `O=C(O)COc1cccc(-c2ccccc2-c2nc(-c3ccccc3)c(-c3ccccc3)o2)c1` [Compound 7, [2'-(4,5-Diphenyl-2-oxazolyl)-[1,1'-biphenyl]-3-yloxy]acetic acid] the IC50 was 5 µg/mL (≈ 11.2 µM).
`COC(=O)COc1cccc(-c2nn(C)cc2-c2nc(-c3ccccc3)c(-c3ccccc3)o2)c1` [Compound 11, Methyl[3-[4-(4,5-diphenyl-2-oxazoly)-1-methyl-3-pyrazolyl]phenoxy]acetate] gave an IC50 of 1.12 µg/mL (≈ 2.41 µM).
Compound `Cn1cc(-c2nc(-c3ccccc3)c(-c3ccccc3)o2)c(-c2cccc(OCC(=O)O)c2)n1` [Compound 12] has an IC50 of 0.3 µg/mL (≈ 0.664 µM).
`COC(=O)COc1cccc(-c2c(-c3nc(-c4ccccc4)c(-c4ccccc4)o3)cnn2C)c1` [Compound 13, Methyl[3-[4-(4,5-diphenyl-2-oxazolyl)-1-methyl-5-pyrazolyl]phenoxy]acetate] showed an IC50 of 0.75 µg/mL (≈ 1.61 µM).
Work on `Cn1ncc(-c2nc(-c3ccccc3)c(-c3ccccc3)o2)c1-c1cccc(OCC(=O)O)c1` [Compound 14] yielded an IC50 of 0.5 µg/mL (≈ 1.11 µM).
Work on `COC(=O)COc1cccc(-c2[nH]ncc2-c2nc(-c3ccccc3)c(-c3ccccc3)o2)c1` [Compound 15, Methyl[3-[4-(4,5-diphenyl-2-oxazolyl)-5-pyrazolyl]phenoxy]acetate] yielded an IC50 of 0.07 µg/mL (≈ 0.155 µM).
Work on `O=C(O)COc1cccc(-c2[nH]ncc2-c2nc(-c3ccccc3)c(-c3ccccc3)o2)c1` [Compound 16, [3-[4-(4,5-Diphenyl-2-oxazolyl)-5-pyrazolyl]phenoxy]acetic acid] yielded an IC50 of 0.08 µg/mL (≈ 0.183 µM).
Compound `COC(=O)COc1cccc(-c2oc(C)nc2-c2nc(-c3ccccc3)c(-c3ccccc3)o2)c1` [Compound 23, Methyl[3-[4-(4,5-diphenyl-2-oxazolyl)-2-methyl-5-oxazolyl]phenoxy]acetate] has an IC50 of 0.13 µg/mL (≈ 0.279 µM).
`Cc1nc(-c2nc(-c3ccccc3)c(-c3ccccc3)o2)c(-c2cccc(OCC(=O)O)c2)o1` [Compound 24] showed an IC50 of 0.02 µg/mL (≈ 0.0442 µM).
`COC(=O)COc1cccc(-c2oc(-c3ccccc3)nc2-c2nc(-c3ccccc3)c(-c3ccccc3)o2)c1` [Compound 25, Methyl[3-[4-(4,5-diphenyl-2-oxazolyl) -2-phenyl-5-oxazolyl]phenoxy]acetate] gave an IC50 of 32 µg/mL (≈ 60.5 µM).
`O=C(O)COc1cccc(-c2oc(-c3ccccc3)nc2-c2nc(-c3ccccc3)c(-c3ccccc3)o2)c1` [Compound 26, [3-[4-(4,5-Diphenyl-2-oxazolyl)-2-phenyl-5-oxazolyl]phenoxy]acetic acid] showed an IC50 of 32 µg/mL (≈ 62.2 µM).
Work on `COC(=O)COc1cccc(C(O)C(NC=O)c2nc(-c3ccccc3)c(-c3ccccc3)o2)c1` (centres unmarked) [Compound 33, Methyl[3-[2-(4,5-diphenyl-2-oxazolyl)-2-(formylamino)-1-hydroxy-ethyl]phenoxy]acetate] yielded an IC50 of 10 µg/mL (≈ 21.2 µM).
In the case of `O=CNC(c1nc(-c2ccccc2)c(-c2ccccc2)o1)C(O)c1cccc(OCC(=O)O)c1` (centres unmarked) [Compound 36], the IC50 is reported as 6.5 µg/mL (≈ 14.2 µM).
With `COC(=O)COc1cccc(C(O)C(N)c2nc(-c3ccccc3)c(-c3ccccc3)o2)c1` (centres unmarked) [Compound 38, Methyl[3-[2-(4,5-diphenyl-2-oxazolyl)-2-amino-1-hydroxyethyl]phenoxy]acetate] the IC50 was 2.8 µg/mL (≈ 6.3 µM).
For `COC(=O)COc1cccc(C2OC(=O)NC2c2nc(-c3ccccc3)c(-c3ccccc3)o2)c1` (centres unmarked) [Compound 43, Methyl[3-[4-(4,5-diphenyl-2-oxazolyl)-2-oxo-5-oxazolidinyl]phenoxy]acetate], the IC50 was 5 µg/mL (≈ 10.6 µM).

Same assay, conditions: Homo sapiens, Platelet, read-out: percentage in brackets beside the IC50 entry 32 (inhibition of ADP-induced aggregation)
`COC(=O)COc1cccc([C@H]2OC(c3ccccc3)=N[C@H]2c2nc(-c3ccccc3)c(-c3ccccc3)o2)c1` (relative stereo) [Compound 42, Methyl[3-[4-(4,5-diphenyl-2-oxazolyl)-4,5-dihydro-2-phenyl-5-oxazolyl]phenoxy]acetate] gave an inhibition at 32 µg/mL of 15%.
`COC(=O)COc1cccc(-c2ccccc2-c2nc(-c3ccccc3)c(-c3ccccc3)o2)c1` [Compound 6, Methyl[2'-(4,5-diphenyl-2-oxazolyl)-[1,1'-biphenyl]-3-yloxy]acetate] showed an inhibition at 32 µg/mL of 34%.
`COC(=O)COc1cccc(-c2oc(-c3ccccc3)nc2-c2nc(-c3ccccc3)c(-c3ccccc3)o2)c1` [Compound 25, Methyl[3-[4-(4,5-diphenyl-2-oxazolyl) -2-phenyl-5-oxazolyl]phenoxy]acetate] showed an inhibition at 32 µg/mL of 6%.
Work on `O=C(O)COc1cccc(C2OC(=O)NC2c2nc(-c3ccccc3)c(-c3ccccc3)o2)c1` (centres unmarked) [Compound 45, [3-[4-(4,5-Diphenyl-2-oxazolyl)-2-oxo-5-oxazolidinyl]phenoxy]acetic acid] yielded an inhibition at 32 µg/mL of 8%.

Same assay, conditions: human PRP, incubated at about 37° C. for about 3 minutes prior to ADP
With `NC(c1nc(-c2ccccc2)c(-c2ccccc2)o1)C(O)c1cccc(OCC(=O)O)c1` (centres unmarked) [Compound 37] the “IC50 (human PRP vs ADP)” value was 0.9 µg/mL (≈ 2.09 µM).
With `O=C(O)COc1cccc(C2OC(=O)NC2c2nc(-c3ccccc3)c(-c3ccccc3)o2)c1` (centres unmarked) [Compound 44, [3-[4-(4,5-Diphenyl-2-oxazolyl)-2-oxo-5-oxazolidinyl]phenoxy]acetic acid] the “IC50 (human PRP vs ADP)” value was 1 µg/mL (≈ 2.19 µM).
In the case of `O=C(O)COc1cccc(C2OC(=O)NC2c2nc(-c3ccccc3)c(-c3ccccc3)o2)c1` (centres unmarked) [Compound 45, [3-[4-(4,5-Diphenyl-2-oxazolyl)-2-oxo-5-oxazolidinyl]phenoxy]acetic acid], the “IC50 (human PRP vs ADP)” value is reported as 32 µg/mL (≈ 70.1 µM).
